According to patent US9796733B2, “Imidazo-pyrazine derivatives useful as soluble guanylate cyclase activators” (Merck Sharp & Dohme Corp., priority 2014, dated 2017):

Legend:
sGC α1/β1 heterodimer = molecular target: T1, sGC α1/β1 heterodimer (Homo sapiens, UniProt Q02108+Q02153); test: Cell-based sGC functional assay (CASA assay): cGMP generation in CHO-K1/sGC cells, HTRF detection; details: for Emax: CHO-K1, percent activation relative to standard Compound A in CHO-K1/sGC cells, read-out: % Act.; for EC50: inflection point (IP) of cGMP generation in CHO-K1/sGC cells, 4P fit, activity expressed as percentage of Compound A
T1 construct: expressed in transfected cells; host or cells: CHO-K1 (clone #7, CHO-K1/sGC)
T1 sequence (Q02108 1-690): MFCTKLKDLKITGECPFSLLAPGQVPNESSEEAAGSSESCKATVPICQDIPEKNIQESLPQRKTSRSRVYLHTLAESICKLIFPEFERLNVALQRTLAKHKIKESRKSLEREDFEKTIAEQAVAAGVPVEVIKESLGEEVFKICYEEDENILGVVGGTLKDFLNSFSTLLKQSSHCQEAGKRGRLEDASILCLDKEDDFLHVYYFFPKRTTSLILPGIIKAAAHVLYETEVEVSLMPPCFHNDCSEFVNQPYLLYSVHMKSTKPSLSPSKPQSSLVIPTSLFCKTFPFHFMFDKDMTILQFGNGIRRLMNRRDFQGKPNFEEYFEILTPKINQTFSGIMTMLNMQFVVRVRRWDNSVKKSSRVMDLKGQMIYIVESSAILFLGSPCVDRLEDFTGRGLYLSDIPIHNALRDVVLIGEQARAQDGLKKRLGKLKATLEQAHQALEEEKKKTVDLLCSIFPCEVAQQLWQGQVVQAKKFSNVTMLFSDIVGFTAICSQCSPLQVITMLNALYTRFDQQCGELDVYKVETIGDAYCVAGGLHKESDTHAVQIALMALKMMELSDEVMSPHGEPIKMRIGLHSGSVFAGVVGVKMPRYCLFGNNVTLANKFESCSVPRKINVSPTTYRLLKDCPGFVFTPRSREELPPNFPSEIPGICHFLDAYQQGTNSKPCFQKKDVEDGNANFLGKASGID
T1 sequence (Q02153 1-619): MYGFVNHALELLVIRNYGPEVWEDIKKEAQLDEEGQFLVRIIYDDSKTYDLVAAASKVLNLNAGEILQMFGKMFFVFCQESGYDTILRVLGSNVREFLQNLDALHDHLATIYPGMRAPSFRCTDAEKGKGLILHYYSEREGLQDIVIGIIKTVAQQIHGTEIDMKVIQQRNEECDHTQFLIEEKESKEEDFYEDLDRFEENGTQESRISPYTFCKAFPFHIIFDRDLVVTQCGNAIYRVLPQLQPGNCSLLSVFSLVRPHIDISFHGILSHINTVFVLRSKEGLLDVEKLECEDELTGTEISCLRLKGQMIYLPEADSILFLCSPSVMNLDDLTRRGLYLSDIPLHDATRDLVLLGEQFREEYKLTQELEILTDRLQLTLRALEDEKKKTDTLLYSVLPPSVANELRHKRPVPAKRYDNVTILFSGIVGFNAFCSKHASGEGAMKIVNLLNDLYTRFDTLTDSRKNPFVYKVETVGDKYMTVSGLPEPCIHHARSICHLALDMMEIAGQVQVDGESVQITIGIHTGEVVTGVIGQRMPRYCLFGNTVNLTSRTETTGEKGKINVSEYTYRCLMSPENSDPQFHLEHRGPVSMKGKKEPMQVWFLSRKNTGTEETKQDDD
Outline: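 cGMP was quantified by HTRF after 1 hr, 37° C exposure of thawed CHO-K1 cells expressing sGC α1/β1 to compound, with or without 1 μM DETA-NO. IBMX (0.5 mM) blocked cGMP breakdown, and DMSO was 2.5% final. Percent of standard Compound A's maximal cGMP was fitted (4P) for inflection point.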

[1] = system: Spontaneously hypertensive rats (SHR); test: Acute efficacy in spontaneously hypertensive rats (SHR): telemetry blood pressure lowering after a single oral dose; type: in vivo, rat
Outline: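 Values are the maximum peak fall in systolic pressure after one oral dose (mpk), computed hourly against baseline from a vehicle dose given the day before. Rats were conscious, male, spontaneously hypertensive, with femoral-aortic telemetry recording 30 s every 10 min, 14 days post-surgery.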

COc1cn2cc(-c3nc(N)c4c(n3)NC(=O)C4(C)c3ccc(F)cc3)nc(CCCC(F)(F)F)c2n1 (stereo not drawn) [Example 176A, 4-amino-5-(4-fluorophenyl)-2-(2-methoxy-8-(4,4,4-trifluorobutyl)imidazo[1,2-a]pyrazin-6-yl)-5-methyl-5H-pyrrolo[2,3-d]pyrimidin-6(7H)-one]
Emax (sGC α1/β1 heterodimer): 107%
EC50 (sGC α1/β1 heterodimer): 79 nM
Maximum peak decrease of systolic blood pressure (SBP) in SHR, Cat. ([1]; P.O. 1.0 mpk): B (Category B=SBP in SHRs 20-40 mmHg)

CC1(c2ccc(Cl)c(F)c2)C(=O)Nc2nc(-c3cn4ccnc4c(CCC(F)(F)F)n3)nc(N)c21 (stereo not drawn) [Example 178B, 4-amino-5-(4-chloro-3-fluorophenyl)-5-methyl-2-(8-(3,3,3-trifluoropropyl)imidazo[1,2-a]pyrazin-6-yl)-5H-pyrrolo[2,3-d]pyrimidin-6(7H)-one]
Emax (sGC α1/β1 heterodimer): 106%
EC50 (sGC α1/β1 heterodimer): 17 nM
Maximum peak decrease of systolic blood pressure (SBP) in SHR, Cat. ([1]; P.O. 0.3 mpk): B (Category B=SBP in SHRs 20-40 mmHg)

CC1(c2ccc(Cl)cc2F)C(=O)Nc2nc(-c3cn4ccnc4c(CCC(F)(F)F)n3)nc(N)c21 (stereo not drawn) [Example 179A, 4-amino-5-(4-chloro-2-fluorophenyl)-5-methyl-2-(8-(3,3,3-trifluoropropyl)imidazo[1,2-a]pyrazin-6-yl)-5H-pyrrolo[2,3-d]pyrimidin-6(7H)-one]
Emax (sGC α1/β1 heterodimer): 129%
EC50 (sGC α1/β1 heterodimer): 45 nM
Maximum peak decrease of systolic blood pressure (SBP) in SHR, Cat. ([1]; P.O. 1.0 mpk): C (Category C=SBP in SHRs>40 mmHg)

CC1(c2ccc(Br)cc2)C(=O)Nc2nc(-c3cn4ccnc4c(CCC(F)(F)F)n3)nc(N)c21 (stereo not drawn) [Example 181A, 4-amino-5-(4-bromophenyl)-5-methyl-2-(8-(3,3,3-trifluoropropyl)imidazo[1,2-a]pyrazin-6-yl)-5H-pyrrolo[2,3-d]pyrimidin-6(7H)-one]
Emax (sGC α1/β1 heterodimer): 132%
EC50 (sGC α1/β1 heterodimer): 56 nM
Maximum peak decrease of systolic blood pressure (SBP) in SHR, Cat. ([1]; P.O. 1.0 mpk): B (Category B=SBP in SHRs 20-40 mmHg)

CC1(c2ccc(Cl)cc2)C(=O)Nc2nc(-c3cn4ccnc4c(CCC(F)(F)F)n3)nc(N)c21 (stereo not drawn) [Example 182A, 4-amino-5-(4-chlorophenyl)-5-methyl-2-(8-(3,3,3-trifluoropropyl)imidazo[1,2-a]pyrazin-6-yl)-5H-pyrrolo[2,3-d]pyrimidin-6(7H)-one]
Emax (sGC α1/β1 heterodimer): 120%
EC50 (sGC α1/β1 heterodimer): 55 nM
Maximum peak decrease of systolic blood pressure (SBP) in SHR, Cat. ([1]; P.O. 1.0 mpk): B (Category B=SBP in SHRs 20-40 mmHg)

CC1(c2ccc(F)c(F)c2)C(=O)Nc2nc(-c3cn4ccnc4c(CCC(F)(F)F)n3)nc(N)c21 (stereo not drawn) [Example 183B, 4-amino-5-(3,4-difluorophenyl)-5-methyl-2-(8-(3,3,3-trifluoropropyl)imidazo[1,2-a]pyrazin-6-yl)-5H-pyrrolo[2,3-d]pyrimidin-6(7H)-one]
Emax (sGC α1/β1 heterodimer): 113%
EC50 (sGC α1/β1 heterodimer): 61 nM
Maximum peak decrease of systolic blood pressure (SBP) in SHR, Cat. ([1]; P.O. 1.0 mpk): B (Category B=SBP in SHRs 20-40 mmHg)

CC1(c2ccc(F)cc2)C(=O)Nc2nc(-c3cn4ccnc4c(CCC(F)(F)F)n3)nc(N)c21 (stereo not drawn) [Example 184A, 4-amino-5-(4-fluorophenyl)-5-methyl-2-(8-(3,3,3-trifluoropropyl)imidazo[1,2-a]pyrazin-6-yl)-5H-pyrrolo[2,3-d]pyrimidin-6(7H)-one]
Emax (sGC α1/β1 heterodimer): 134%
EC50 (sGC α1/β1 heterodimer): 176 nM
Maximum peak decrease of systolic blood pressure (SBP) in SHR, Cat. ([1]; P.O. 1.0 mpk): B (Category B=SBP in SHRs 20-40 mmHg)

Cc1ccc(C2(C)C(=O)Nc3nc(-c4cn5ccnc5c(CCC(F)(F)F)n4)nc(N)c32)cc1 (stereo not drawn) [Example 185A, 4-amino-5-methyl-5-(p-tolyl)-2-(8-(3,3,3-trifluoropropyl)imidazo[1,2-a]pyrazin-6-yl)-5H-pyrrolo[2,3-d]pyrimidin-6(7H)-one]
Emax (sGC α1/β1 heterodimer): 132%
EC50 (sGC α1/β1 heterodimer): 235 nM
Maximum peak decrease of systolic blood pressure (SBP) in SHR, Cat. ([1]; P.O. 3.0 mpk): C (Category C=SBP in SHRs>40 mmHg)

CC1(c2ccc(Cl)c(Cl)c2)C(=O)Nc2nc(-c3cn4ccnc4c(CCC(F)(F)F)n3)nc(N)c21 (stereo not drawn) [Example 186A, 4-amino-5-(3,4-dichlorophenyl)-5-methyl-2-(8-(3,3,3-trifluoropropyl)imidazo[1,2-a]pyrazin-6-yl)-5H-pyrrolo[2,3-d]pyrimidin-6(7H)-one]
Emax (sGC α1/β1 heterodimer): 129%
EC50 (sGC α1/β1 heterodimer): 207 nM
Maximum peak decrease of systolic blood pressure (SBP) in SHR, Cat. ([1]; P.O. 1.0 mpk): B (Category B=SBP in SHRs 20-40 mmHg)

CC1(c2ccccc2)C(=O)Nc2nc(-c3cn4ccnc4c(CCC(F)(F)F)n3)nc(N)c21 (stereo not drawn) [Example 188B, 4-amino-5-methyl-5-phenyl-2-(8-(3,3,3-trifluoropropyl)imidazo[1,2-a]pyrazin-6-yl)-5H-pyrrolo[2,3-d]pyrimidin-6(7H)-one]
Emax (sGC α1/β1 heterodimer): 154%
EC50 (sGC α1/β1 heterodimer): 304 nM
Maximum peak decrease of systolic blood pressure (SBP) in SHR, Cat. ([1]; P.O. 3.0 mpk): B (Category B=SBP in SHRs 20-40 mmHg)

CC1(c2ccc(C(F)(F)F)cc2)C(=O)Nc2nc(-c3cn4ccnc4c(CCC(F)(F)F)n3)nc(N)c21 (stereo not drawn) [Example 189B, 4-amino-5-methyl-5-(4-(trifluoromethyl)phenyl)-2-(8-(3,3,3-trifluoropropyl)imidazo[1,2-a]pyrazin-6-yl)-5H-pyrrolo[2,3-d]pyrimidin-6(7H)-one]
Emax (sGC α1/β1 heterodimer): 143%
EC50 (sGC α1/β1 heterodimer): 211 nM
Maximum peak decrease of systolic blood pressure (SBP) in SHR, Cat. ([1]; P.O. 3.0 mpk): B (Category B=SBP in SHRs 20-40 mmHg)

Nc1nc(-c2cn3ccnc3c(CCC(F)(F)F)n2)nc2c1C(c1ccc(Cl)c(F)c1)(C1CC1)C(=O)N2 (stereo not drawn) [Example 190A, 4-amino-5-(4-chloro-3-fluorophenyl)-5-cyclopropyl-2-(8-(3,3,3-trifluoropropyl)imidazo[1,2-a]pyrazin-6-yl)-5H-pyrrolo[2,3-d]pyrimidin-6(7H)-one]
Emax (sGC α1/β1 heterodimer): 90%
EC50 (sGC α1/β1 heterodimer): 114 nM
Maximum peak decrease of systolic blood pressure (SBP) in SHR, Cat. ([1]; P.O. 3.0 mpk): C (Category C=SBP in SHRs>40 mmHg)

CC1(c2ccc(F)c(Cl)c2)C(=O)Nc2nc(-c3cn4ccnc4c(CCC(F)(F)F)n3)nc(N)c21 (stereo not drawn) [Example 193B, 4-amino-5-(3-chloro-4-fluorophenyl)-5-methyl-2-(8-(3,3,3-trifluoropropyl)imidazo[1,2-a]pyrazin-6-yl)-5H-pyrrolo[2,3-d]pyrimidin-6(7H)-one]
Emax (sGC α1/β1 heterodimer): 111%
EC50 (sGC α1/β1 heterodimer): 355 nM
Maximum peak decrease of systolic blood pressure (SBP) in SHR, Cat. ([1]; P.O. 3.0 mpk): B (Category B=SBP in SHRs 20-40 mmHg)

Nc1nc(-c2cn3ccnc3c(CCC(F)(F)F)n2)nc2c1C(c1ccc(F)cc1)(C1CC1)C(=O)N2 (stereo not drawn) [Example 194B, 4-amino-5-cyclopropyl-5-(4-fluorophenyl)-2-(8-(3,3,3-trifluoropropyl)imidazo[1,2-a]pyrazin-6-yl)-5H-pyrrolo[2,3-d]pyrimidin-6(7H)-one]
Emax (sGC α1/β1 heterodimer): 116%
EC50 (sGC α1/β1 heterodimer): 268 nM
Maximum peak decrease of systolic blood pressure (SBP) in SHR, Cat. ([1]; P.O. 3.0 mpk): C (Category C=SBP in SHRs>40 mmHg)

CCC1(c2ccc(Br)cc2)C(=O)Nc2nc(-c3cn4ccnc4c(CCC(F)(F)F)n3)nc(N)c21 (stereo not drawn) [Example 197A, 4-amino-5-(4-bromophenyl)-5-ethyl-2-(8-(3,3,3-trifluoropropyl)imidazo[1,2-a]pyrazin-6-yl)-5H-pyrrolo[2,3-d]pyrimidin-6(7H)-one]
Emax (sGC α1/β1 heterodimer): 66%
EC50 (sGC α1/β1 heterodimer): 163 nM
Maximum peak decrease of systolic blood pressure (SBP) in SHR, Cat. ([1]; P.O. 3.0 mpk): B (Category B=SBP in SHRs 20-40 mmHg)

Nc1nc(-c2cn3ccnc3c(CCC(F)(F)F)n2)nc2c1C(c1ccc(Cl)cc1)(C1CC1)C(=O)N2 (stereo not drawn) [Example 198B, 4-amino-5-(4-chlorophenyl)-5-cyclopropyl-2-(8-(3,3,3-trifluoropropyl)imidazo[1,2-a]pyrazin-6-yl)-5H-pyrrolo[2,3-d]pyrimidin-6(7H)-one]
Emax (sGC α1/β1 heterodimer): 112%
EC50 (sGC α1/β1 heterodimer): 492 nM
Maximum peak decrease of systolic blood pressure (SBP) in SHR, Cat. ([1]; P.O. 1.0 mpk): B (Category B=SBP in SHRs 20-40 mmHg)
